Measured values taken from patent publication US20030187049A1, “Compositions based on aminoacids, suitable for improving muscle performance” (priority 2003, published 2003).

Tested on: athletes
Assay: comparative study of amino acids mixture, creatine and placebo in athletes: bench press, squat, braked bicycle ergometer
Assay type: in vivo, humans
From the text: The effects on energy balance of the an amino acids mixture according to the invention as above indicated were the subject of a comparative study with creatine, on a weight ratio (w/w), or with no treatment, on a large group of volunteers submitted to a rigid protocol of alimentation and training. […] In some athletes, also heart frequency rate and VO2 max were registered while performing a treadmill test, before arid at the end of this study.

[1] = after one month of treatment and training, mixture 24 g/d, creatine 25 g/d

SMILES: CN(CC(=O)O)C(=N)N [creatine]
- performances over basal and no treatment group (after one month): significant improvements of performances
- Bench press [1]: 177 ± 34 kg
- Squat Room. [1]: 148.5 ± 31.2 kg
- Watt/Kg max (maximal power productive performance on a braked bicycle ergometer) [1]: 9.8 ± 0.6 watt/kg max
